The results in this text go back to patent US20260137703A1, “2-AMINO-PYRIDO[2,3-D]PYRIMIDIN-7(8H)-ONE AND 7-AMINO-1-PYRIMIDO[4,5-D]PYRIMIDIN-2(1 H)-ONE DERIVATIVES AS EGFR INHIBITORS FOR THE TREATMENT OF CANCER” (Cancer Research Technology Limited, priority 2022, published 2026).

The target in experiment [1] is T1, Phospho-EGFR (Tyr1068) in H1975 cells (Homo sapiens, UniProt P00533, L858R/T790M).
T1 construct: host or cells: H1975
Nature of the experiment: HTRF pEGFR/total EGFR in H1975 cells. Format: cell-based. Particulars: ratio pEGFR/total EGFR, compound 3 hours. The protocol: (§1) H1975 cells (ATCC CRL-5908) were plated at 20,000 cells per well in 96 well plates and placed at 37° C. 5% CO2. Once adhered (after 24 h) cells were treated with compounds dissolved in DMSO at a final concentration of 0.1% DMSO in media. Compounds were diluted in media then added to cells for 3 hours in duplicate. Compound and media were removed from the cells, then 50 ul of HTRF lysis buffer is added (lysis buffer was diluted from 4× stock to 1× in DI water, with 1% blocking agent also added). Cells were lysed on a plate shaker (2000 rpm) for 30 minutes at room temperature. pEGFR expression was monitored using the Cisbio Phospho-EGFR (Tyri068) cellular kit (64EG1PEH). Total EGFR expression was monitored using the Cisbio Total EGFR cellular kit (64NG1PEH) as per manufacturer's instructions. Fluorescence emission was read at two different wavelengths (665 nm and 620 nm) on a PheraStar. Results were calculated as ratio of pEGFR/total EGFR and then percentage of 0 μM control.
In general terms: In TR-FRET formats the signal depends on donor and acceptor labels being close together.

The target in experiment [2] is CtermHisTag-mEGFR Wild type (Homo sapiens, UniProt P00533). Nature of the experiment: biochemical.
Sequence of CtermHisTag-mEGFR Wild type (P00533 whole entry): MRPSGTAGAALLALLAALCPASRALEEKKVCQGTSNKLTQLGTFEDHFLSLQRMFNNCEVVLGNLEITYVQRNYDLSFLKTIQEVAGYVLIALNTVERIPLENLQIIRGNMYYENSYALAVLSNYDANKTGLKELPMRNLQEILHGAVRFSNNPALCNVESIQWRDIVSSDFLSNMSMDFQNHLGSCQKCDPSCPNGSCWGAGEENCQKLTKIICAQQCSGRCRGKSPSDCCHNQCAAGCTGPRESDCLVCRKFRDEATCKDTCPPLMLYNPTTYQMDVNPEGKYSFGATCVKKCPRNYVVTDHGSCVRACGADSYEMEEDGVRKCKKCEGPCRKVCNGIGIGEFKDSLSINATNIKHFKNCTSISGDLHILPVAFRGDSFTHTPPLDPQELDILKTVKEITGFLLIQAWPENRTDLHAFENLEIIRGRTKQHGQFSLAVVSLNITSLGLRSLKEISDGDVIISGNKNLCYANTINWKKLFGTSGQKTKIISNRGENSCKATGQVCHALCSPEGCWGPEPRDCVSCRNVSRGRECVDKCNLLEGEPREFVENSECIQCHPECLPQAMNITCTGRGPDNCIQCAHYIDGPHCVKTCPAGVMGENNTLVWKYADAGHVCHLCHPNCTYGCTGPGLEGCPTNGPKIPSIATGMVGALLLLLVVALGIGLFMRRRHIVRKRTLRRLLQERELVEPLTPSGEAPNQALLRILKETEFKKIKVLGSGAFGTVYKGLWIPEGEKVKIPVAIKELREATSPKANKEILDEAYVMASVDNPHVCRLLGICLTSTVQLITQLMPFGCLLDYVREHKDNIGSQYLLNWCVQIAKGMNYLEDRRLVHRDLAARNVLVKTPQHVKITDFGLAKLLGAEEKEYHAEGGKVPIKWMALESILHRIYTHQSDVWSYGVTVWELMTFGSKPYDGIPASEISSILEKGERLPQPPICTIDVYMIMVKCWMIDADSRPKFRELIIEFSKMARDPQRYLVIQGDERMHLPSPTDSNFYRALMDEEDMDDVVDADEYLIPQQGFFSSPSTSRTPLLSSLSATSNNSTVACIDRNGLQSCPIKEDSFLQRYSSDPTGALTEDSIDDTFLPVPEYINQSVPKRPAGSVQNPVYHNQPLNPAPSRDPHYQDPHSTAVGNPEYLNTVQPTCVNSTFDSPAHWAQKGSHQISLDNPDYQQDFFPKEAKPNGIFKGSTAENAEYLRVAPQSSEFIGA
Experiment [3] has as its target T2, Phospho-EGFR (Tyr1068) in A431 cells (Homo sapiens, UniProt P00533).
T2 construct: endogenous in cells; host or cells: A431
Nature of the experiment: HTRF pEGFR/total EGFR in A431 cells with EGF stimulation. Format: cell-based. As to conditions: ratio pEGFR/total EGFR, compound 2.5 hours then 100 ng/ml EGF 30 mins. The protocol: Cells were plated at 20,000 cells per well in 96 well plates and placed at 37° C. 5% CO2. Once adhered (after 24 h) cells were treated with compounds dissolved in DMSO at a final concentration of 0.1% DMSO in media. Compounds were diluted in media then added to cells for 2.5 hours in duplicate, 100 ng/ml EGF (ThermoFisher, PHG0311) was added to all compound treated cells as well as a control for 30 mins. Compound and media were removed from the cells, then 50 ul of HTRF lysis buffer was added (lysis buffer was diluted from 4× stock to 1× in DI water, with 1% blocking agent also added). Cells were lysed on a plate shaker (2000 rpm) for 30 minutes at room temperature. pEGFR expression was monitored using the Cisbio Phospho-EGFR (Tyr1068) cellular kit (64EG1PEH). Total EGFR expression was monitored using the Cisbio Total EGFR cellular kit (64NG1PEH) as per manufacturer's instructions. Fluorescence emission was read at two different wavelengths (665 nm and 620 nm) on a PheraStar. Results were calculated as ratio of pEGFR/total EGFR and then percentage of 0 μM control.

In experiment [4] the target is T3, Phospho-EGFR (Tyr1068) in H1975 C797S cells (CRISPR-edited EGFR C797S) (Homo sapiens, UniProt P00533, C797S/L858R/T790M).
T3 construct: host or cells: H1975 C797S (CRISPR-edited)
T3 sequence (P00533 25-1210 T790M/C797S/L858R): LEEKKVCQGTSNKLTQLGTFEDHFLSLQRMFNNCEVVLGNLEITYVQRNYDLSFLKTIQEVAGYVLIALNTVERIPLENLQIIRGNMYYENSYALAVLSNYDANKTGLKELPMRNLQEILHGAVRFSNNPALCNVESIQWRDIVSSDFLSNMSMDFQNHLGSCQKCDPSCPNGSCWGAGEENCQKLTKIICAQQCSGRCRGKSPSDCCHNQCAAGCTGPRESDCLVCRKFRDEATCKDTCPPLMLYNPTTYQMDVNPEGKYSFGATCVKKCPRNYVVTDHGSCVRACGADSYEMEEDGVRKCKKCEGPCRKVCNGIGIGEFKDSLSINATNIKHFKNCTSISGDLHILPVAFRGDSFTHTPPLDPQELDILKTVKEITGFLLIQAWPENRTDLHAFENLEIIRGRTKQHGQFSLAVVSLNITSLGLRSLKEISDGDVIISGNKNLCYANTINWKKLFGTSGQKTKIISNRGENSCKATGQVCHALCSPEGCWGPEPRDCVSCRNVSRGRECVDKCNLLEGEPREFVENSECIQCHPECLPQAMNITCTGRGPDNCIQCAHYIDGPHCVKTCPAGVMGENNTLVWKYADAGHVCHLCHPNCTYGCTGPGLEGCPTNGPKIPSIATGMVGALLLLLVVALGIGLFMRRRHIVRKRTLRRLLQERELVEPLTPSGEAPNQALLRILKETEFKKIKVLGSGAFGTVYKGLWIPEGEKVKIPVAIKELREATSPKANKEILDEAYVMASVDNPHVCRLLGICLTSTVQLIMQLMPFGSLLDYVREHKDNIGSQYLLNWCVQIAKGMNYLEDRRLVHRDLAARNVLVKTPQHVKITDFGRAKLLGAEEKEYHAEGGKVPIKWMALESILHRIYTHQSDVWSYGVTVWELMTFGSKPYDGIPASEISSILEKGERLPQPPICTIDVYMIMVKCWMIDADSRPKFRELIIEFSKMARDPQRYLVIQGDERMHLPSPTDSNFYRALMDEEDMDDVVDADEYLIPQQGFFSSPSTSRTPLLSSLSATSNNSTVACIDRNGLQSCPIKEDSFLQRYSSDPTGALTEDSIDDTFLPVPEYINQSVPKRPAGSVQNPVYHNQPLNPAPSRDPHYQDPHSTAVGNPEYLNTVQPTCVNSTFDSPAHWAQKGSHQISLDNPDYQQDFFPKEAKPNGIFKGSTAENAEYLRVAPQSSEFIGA
Nature of the experiment: HTRF pEGFR/total EGFR in H1975 C797S cells. As to conditions: ratio pEGFR/total EGFR, compound 3 hours. Format: cell-based. The protocol:
as §1, with “[…]. Once” for “H1975 cells (ATCC CRL-5908) were plated at 20,000 cells per well in 96 well plates and placed at 37° C. 5% CO2. Once”, “buffer was” for “buffer is”, “Phospho-EGFR (Tyr1068)” for “Phospho-EGFR (Tyri068)”

T1 sequence (P00533 25-1210 T790M/L858R): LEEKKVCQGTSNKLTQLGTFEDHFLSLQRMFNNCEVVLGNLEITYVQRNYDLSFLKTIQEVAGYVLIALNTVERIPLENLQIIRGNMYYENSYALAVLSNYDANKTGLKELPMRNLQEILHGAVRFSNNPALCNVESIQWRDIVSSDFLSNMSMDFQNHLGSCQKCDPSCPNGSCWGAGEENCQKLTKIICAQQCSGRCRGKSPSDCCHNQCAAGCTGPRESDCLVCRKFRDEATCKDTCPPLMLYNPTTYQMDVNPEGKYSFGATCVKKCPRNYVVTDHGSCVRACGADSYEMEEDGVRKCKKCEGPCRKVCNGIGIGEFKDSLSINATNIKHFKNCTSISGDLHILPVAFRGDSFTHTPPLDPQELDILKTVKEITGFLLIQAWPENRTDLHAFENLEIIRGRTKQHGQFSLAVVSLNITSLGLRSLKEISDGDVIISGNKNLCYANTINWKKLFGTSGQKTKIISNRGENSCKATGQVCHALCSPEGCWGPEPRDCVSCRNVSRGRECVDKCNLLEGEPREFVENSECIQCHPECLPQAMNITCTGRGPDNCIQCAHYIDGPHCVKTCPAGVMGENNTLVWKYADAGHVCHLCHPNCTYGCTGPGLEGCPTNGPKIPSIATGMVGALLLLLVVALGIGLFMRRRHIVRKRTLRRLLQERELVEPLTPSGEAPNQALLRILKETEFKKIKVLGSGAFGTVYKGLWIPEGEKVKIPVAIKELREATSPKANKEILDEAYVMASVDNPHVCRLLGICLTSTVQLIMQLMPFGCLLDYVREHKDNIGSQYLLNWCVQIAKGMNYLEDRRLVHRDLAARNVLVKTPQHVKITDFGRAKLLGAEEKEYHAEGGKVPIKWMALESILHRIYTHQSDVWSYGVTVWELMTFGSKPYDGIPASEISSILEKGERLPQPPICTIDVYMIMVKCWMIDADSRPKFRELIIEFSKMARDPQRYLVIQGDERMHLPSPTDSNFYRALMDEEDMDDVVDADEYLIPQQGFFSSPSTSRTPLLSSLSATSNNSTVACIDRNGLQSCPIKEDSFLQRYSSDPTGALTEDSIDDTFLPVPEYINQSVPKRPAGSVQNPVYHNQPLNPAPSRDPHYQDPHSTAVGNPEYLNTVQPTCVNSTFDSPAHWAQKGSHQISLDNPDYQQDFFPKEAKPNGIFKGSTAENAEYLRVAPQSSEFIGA
T2 sequence (P00533 25-1210): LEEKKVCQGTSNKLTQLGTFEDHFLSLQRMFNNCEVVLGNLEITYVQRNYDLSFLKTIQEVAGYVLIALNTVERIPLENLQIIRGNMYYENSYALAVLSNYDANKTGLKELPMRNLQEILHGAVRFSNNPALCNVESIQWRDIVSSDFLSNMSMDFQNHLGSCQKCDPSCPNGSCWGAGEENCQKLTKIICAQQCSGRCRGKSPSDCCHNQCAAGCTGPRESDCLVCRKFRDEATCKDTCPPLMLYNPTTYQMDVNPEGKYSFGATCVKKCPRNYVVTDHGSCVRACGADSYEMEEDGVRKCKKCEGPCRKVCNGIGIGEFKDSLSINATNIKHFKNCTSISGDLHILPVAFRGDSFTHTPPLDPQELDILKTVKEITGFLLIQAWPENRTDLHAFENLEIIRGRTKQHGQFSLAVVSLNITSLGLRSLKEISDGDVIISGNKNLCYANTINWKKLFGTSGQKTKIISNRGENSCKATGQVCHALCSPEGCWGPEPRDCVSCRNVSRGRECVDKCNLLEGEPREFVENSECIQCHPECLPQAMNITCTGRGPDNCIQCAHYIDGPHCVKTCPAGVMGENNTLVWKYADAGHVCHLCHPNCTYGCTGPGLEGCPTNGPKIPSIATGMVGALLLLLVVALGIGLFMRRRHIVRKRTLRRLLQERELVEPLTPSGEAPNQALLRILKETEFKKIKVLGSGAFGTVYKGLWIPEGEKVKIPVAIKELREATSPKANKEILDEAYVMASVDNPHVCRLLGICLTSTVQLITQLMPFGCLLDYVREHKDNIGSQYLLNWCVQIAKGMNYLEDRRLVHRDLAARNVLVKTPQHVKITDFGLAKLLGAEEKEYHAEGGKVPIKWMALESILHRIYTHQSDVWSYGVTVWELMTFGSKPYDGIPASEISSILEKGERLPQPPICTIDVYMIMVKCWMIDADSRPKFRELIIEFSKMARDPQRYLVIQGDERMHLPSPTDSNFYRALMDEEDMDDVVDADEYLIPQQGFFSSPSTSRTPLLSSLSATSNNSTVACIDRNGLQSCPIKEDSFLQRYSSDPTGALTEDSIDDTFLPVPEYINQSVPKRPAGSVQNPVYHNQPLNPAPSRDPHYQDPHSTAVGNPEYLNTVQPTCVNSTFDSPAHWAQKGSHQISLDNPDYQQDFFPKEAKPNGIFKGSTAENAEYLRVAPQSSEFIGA

A word on the IC50: it is the midpoint of a concentration-inhibition curve. In the case of `C#Cc1cc(=O)n(-c2ccccc2)c2nc(Nc3ccc(N4CCN(CC)CC4)cc3)ncc12` [Example 15, 2-{[4-(4-Ethylpiperazin-1-yl)phenyl]amino}-5-ethynyl-8-phenylpyrido[2,3-d]pyrimidin-7-one], the IC50 is below 500 nM in experiment [1], below 1000 nM in experiment [2], above 3000 nM in experiment [3] and below 500 nM in experiment [4].
Turning to `C#Cc1cc(=O)n(-c2ccccc2)c2nc(Nc3ccc(N4CCN(C(C)C)CC4)cc3)ncc12` [Example 16, 5-Ethynyl-2-{[4-(4-isopropylpiperazin-1-yl)phenyl]amino}-8-phenylpyrido[2,3-d]pyrimidin-7-one], the IC50 in experiment [1] is below 500 nM; in experiment [2], below 1000 nM; in experiment [3], 1000 to 3000 nM; in experiment [4] it was below 500 nM.
Turning to `C#Cc1cc(=O)n(-c2ccccc2)c2nc(Nc3ccc(N4CCN(CCO)CC4)cc3)ncc12` [Example 17, 5-ethynyl-2-({4-[4-(2-hydroxyethyl)piperazin-1-yl]phenyl}amino)-8-phenylpyrido[2,3-d]pyrimidin-7-one], the IC50 was below 500 nM in experiment [1], below 1000 nM in experiment [2], 1000 to 3000 nM in experiment [3] and below 500 nM in experiment [4].
For `C#Cc1cc(=O)n(-c2ccccc2)c2nc(Nc3ccc(N4CCN(C5COC5)CC4)cc3)ncc12` [Example 18, 5-Ethynyl-2-({4-[4-(oxetan-3-yl)piperazin-1-yl]phenyl}amino)-8-phenylpyrido[2,3-d]pyrimidin-7-one], the IC50 in experiment [1] is below 500 nM; in experiment [2] it was below 1000 nM; in experiment [3], 1000 to 3000 nM; in experiment [4], below 500 nM.
Turning to `C#Cc1cc(=O)n(-c2ccccc2)c2nc(Nc3cnn(C4CCN(C)CC4)c3)ncc12` [Example 19, 5-Ethynyl-2-{[1-(1-methylpiperidin-4-yl)pyrazol-4-yl]amino}-8-phenylpyrido[2,3-d]pyrimidin-7-one], the IC50 in experiment [1] was below 500 nM; in experiment [2], below 1000 nM; in experiment [3], above 3000 nM; in experiment [4], 500 to 1000 nM.
The like results for `C#Cc1cc(=O)n(-c2ccccc2)c2nc(Nc3ccc(N4CCCNCC4)cc3)ncc12` [Example 20, 2-{[4-(1,4-Diazepan-1-yl)phenyl]amino}-5-ethynyl-8-phenylpyrido[2,3-d]pyrimidin-7-one] were, in that order, below 500 nM, below 1000 nM, 1000 to 3000 nM and below 500 nM.
Regarding `C#Cc1cc(=O)n(-c2ccccc2)c2nc(Nc3ccc(C4CCN(C)CC4)cc3)ncc12` [Example 21, 5-Ethynyl-2-{[4-(1-methylpiperidin-4-yl)phenyl]amino}-8-phenylpyrido[2,3-d]pyrimidin-7-one], the IC50 in experiment [1] is below 500 nM; in experiment [2], below 1000 nM; in experiment [3], 1000 to 3000 nM; in experiment [4], below 500 nM.
Consider `C#Cc1cc(=O)n(-c2ccccc2)c2nc(Nc3ccc(C4CCNCC4)cc3)ncc12` [Example 22, 5-Ethynyl-8-phenyl-2-{[4-(piperidin-4-yl)phenyl]amino}pyrido[2,3-d]pyrimidin-7-one], for which the IC50 in experiment [1] is below 500 nM; in experiment [2], below 1000 nM; in experiment [3] it was above 3000 nM; in experiment [4], below 500 nM.
Take `C#Cc1cc(=O)n(-c2ccccc2)c2nc(Nc3ccc(N4CCC(N5CCN(C)CC5)CC4)cc3)ncc12` [Example 23, 5-Ethynyl-2-({4-[4-(4-methylpiperazin-1-yl)piperidin-1-yl]phenyl}amino)-8-phenylpyrido[2,3-d]pyrimidin-7-one]: the IC50 is below 500 nM in experiment [1], below 1000 nM in experiment [2], 1000 to 3000 nM in experiment [3] and below 500 nM in experiment [4].
As to `C#Cc1cc(=O)n(-c2ccccc2)c2nc(Nc3ccc(N4CCN(C)CC4)c(CC)c3)ncc12` [Example 24, 2-{[3-Ethyl-4-(4-methylpiperazin-1-yl)phenyl]amino}-5-ethynyl-8-phenylpyrido[2,3-d]pyrimidin-7-one], the IC50 is below 500 nM in experiment [1], below 1000 nM in experiment [2], above 3000 nM in experiment [3] and below 500 nM in experiment [4].
For the molecule `C#Cc1cc(=O)n(-c2ccccc2)c2nc(Nc3cnn(C)c3)ncc12` [Example 25, 5-Ethynyl-2-[(1-methylpyrazol-4-yl)amino]-8-phenylpyrido[2,3-d]pyrimidin-7-one], the IC50 in experiment [1] is 1000 to 3000 nM; in experiment [2] it was below 1000 nM; in experiment [3], above 3000 nM; in experiment [4], 1000 to 3000 nM.
With `C#Cc1cc(=O)n(-c2ccccc2)c2nc(Nc3ccc4c(c3)CCNCC4)ncc12` [Example 26, 5-ethynyl-8-phenyl-2-(2,3,4,5-tetrahydro-1H-3-benzazepin-7-ylamino)pyrido [2,3-d]pyrimidin-7-one], the IC50 in experiment [1] was below 500 nM; in experiment [2] it was below 1000 nM; in experiment [3], 1000 to 3000 nM; in experiment [4], below 500 nM.
On to `C#Cc1cc(=O)n(-c2ccccc2)c2nc(Nc3ccc(N4CCNC(C)C4)cc3)ncc12` (stereo not drawn) [Example 27, 5-Ethynyl-2-{[4-(3-methylpiperazin-1-yl)phenyl]amino}-8-phenylpyrido[2,3-d]pyrimidin-7-one], for which the IC50 was below 500 nM in experiment [1], below 1000 nM in experiment [2], 1000 to 3000 nM in experiment [3] and below 500 nM in experiment [4].
`C#Cc1cc(=O)n(-c2ccccc2)c2nc(Nc3ccc(N4CCC(N5CC(CO)C5)CC4)cc3)ncc12` [Example 28]: the IC50 was below 500 nM in experiment [1], below 1000 nM in experiment [2], 1000 to 3000 nM in experiment [3] and below 500 nM in experiment [4].
As to `C#Cc1cc(=O)n(-c2ccccc2)c2nc(Nc3ccc(N4CCC(N5CC(N(C)C)C5)CC4)cc3)ncc12` [Example 29, 2-[(4-{4-[3-(Dimethylamino)azetidin-1-yl]piperidin-1-yl}phenyl)amino]-5-ethynyl-8-phenylpyrido[2,3-d]pyrimidin-7-one], the half-inhibitory concentration (IC50) was below 500 nM in experiment [1], below 1000 nM in experiment [2], above 3000 nM in experiment [3] and below 500 nM in experiment [4].
Consider `C#Cc1cc(=O)n(-c2ccccc2)c2nc(Nc3ccc(N4CCC(N5CC(F)(CO)C5)CC4)cc3)ncc12` [Example 30, 5-Ethynyl-2-[(4-{4-[3-fluoro-3-(hydroxymethyl)azetidin-1-yl]piperidin-1-yl}phenyl)amino]-8-phenylpyrido[2,3-d]pyrimidin-7-one], for which the IC50 in experiment [1] is below 500 nM; in experiment [2], below 1000 nM; in experiment [3], above 3000 nM; in experiment [4] it was below 500 nM.
On to `C#Cc1cc(=O)n(-c2ccccc2)c2nc(Nc3ccc(N4CCN(C)CC4)c(CO)c3)ncc12` [Example 31, 5-Ethynyl-2-{[3-(hydroxymethyl)-4-(4-methylpiperazin-1-yl)phenyl]amino}-8-phenylpyrido[2,3-d]pyrimidin-7-one], for which the half-maximal inhibitory concentration (IC50) in experiment [1] was below 500 nM; in experiment [2], below 1000 nM; in experiment [3] it was above 3000 nM; in experiment [4], 500 to 1000 nM.
As to `C#Cc1cc(=O)n(-c2ccccc2)c2nc(Nc3ccc(N(C)CCN(C)C)c(C)c3)ncc12` [Example 32, 2-[(4-{[2-(Dimethylamino)ethyl](methyl)amino}-3-methylphenyl)amino]-5-ethynyl-8-phenylpyrido[2,3-d]pyrimidin-7-one], the IC50 in experiment [1] is below 500 nM; in experiment [2], below 1000 nM; in experiment [3], above 3000 nM; in experiment [4] it was below 500 nM.
